Reference: ChEMBL document CHEMBL5214933, “Discovery of Selenium-Containing STING Agonists as Orally Available Antitumor Agents” (J Med Chem, 2022)

Columns and labels:
[1] = biological target: Stimulator of interferon genes protein (Homo sapiens, UniProt Q86WV6); experiment: Binding affinity to recombinant human STING H232 variant expressed in Escherichia coli BL21 (DE3) assessed as dissociation constant by multicycle SPR analysis
[2] = system: Mus musculus; experiment: Immunostimulatory activity in naive […] mouse implanted with mouse MC38 cells assessed as increase in CD69-positive CD8 T cells in spleen at 30 mg/kg, po by FACS analysis (reference value: 8.9 %); format: functional, MC-38

Sequence of Stimulator of interferon genes protein (Q86WV6 whole entry, looked up, change not shown): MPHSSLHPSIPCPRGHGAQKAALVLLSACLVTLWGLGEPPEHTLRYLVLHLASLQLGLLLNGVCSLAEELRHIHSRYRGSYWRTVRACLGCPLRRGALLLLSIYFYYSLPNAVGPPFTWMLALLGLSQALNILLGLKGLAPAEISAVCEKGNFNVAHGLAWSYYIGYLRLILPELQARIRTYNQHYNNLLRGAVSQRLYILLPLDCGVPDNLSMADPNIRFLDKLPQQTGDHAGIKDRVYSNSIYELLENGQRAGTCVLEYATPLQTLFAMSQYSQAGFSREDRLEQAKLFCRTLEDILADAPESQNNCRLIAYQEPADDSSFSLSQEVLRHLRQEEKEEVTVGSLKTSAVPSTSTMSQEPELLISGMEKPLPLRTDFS

Compound `CC[C@H](CC(=O)c1cc2cc(OC)c(OC)cc2[se]1)C(=O)O` has a Kd [1] of 58 µM and an Activity [2] of 94.2%.
